Assay results: US20140314857A1, “FORMULATIONS FOR ENHANCED BIOAVAILABILITY OF ZANAMIVIR” (priority 2012, published 2014)
“And” between values parts separate entries of the source, which are not always exact repeats. Equal entries are not always repeated.

Assay: Intraduodenal bioavailability of zanamivir from glycerol and PBS formulations, enhancer pre-dose (Example 6)
Settings: for half-life: t1/2, ID 1.5 mg/animal
Source text: Male Sprague-Dawley rats (Hilltop Labs), 3 animals per treatment group, 250-350 grams in weight, were fitted with a jugular vein cannula (JVC). Animals intended for intraduodenal dosing were also fitted with one or more intraduodenal cannula (IDC) and those intended for intravenous dosing were fitted with a second JVC. Food was withheld from the animals for a minimum of twelve hours prior to test article administration and was returned approximately four hours post-dose. Water was supplied ad libitum.
Intraduodenal doses composed of 1.5 mg of zanamivir and varying amounts of an enhancer (glycerol or Capmul MCM L8) were injected directly into the duodenum via the IDC. Intravenous dosing was conducted by the injection of 1.5 mg of zanamivir in 200 μL of PBS through a JVC. For some experiments, the absorption enhancer was administered intraduodenally 2 hr prior to administering 1.5 mg of zanamivir in PBS through a second IDC. Each intraduodenal dose was followed with the introduction of a small air bubble (˜10 μL) in the cannula followed by a flush of 125 μL of PBS to ensure the dose was given in full. The volume of PBS used for cannula flush was consistent across the treatment groups. The cannula was tied to prevent the PBS remaining in the cannula from entering the duodenum.
Blood samples collected via the JVC, approximately 400 μL each, were obtained at 2 min, 5 min, 15 min, 30 min, 60 min, 90 min, and 120 min, with sodium heparin used as an anti-coagulant. Each sample was placed into a chilled tube containing the anticoagulant and kept on ice until centrifugation at 4° C., 3,000×g, for 5 min. The plasma supernatants were stored at −70° C. until LC-MS analysis.
Dosing solution samples were assayed by LC-MS/MS using electrospray ionization. The chromatographic system consisted of Perkin Elmer series 200 micropumps and autosampler equipped with a Waters Atlantic® HILIC Silica 3 μM, 2.1×50 mm column. The mass spectrometer was a PE Sciex API 4000 with electrospray interface in multiple reaction monitoring mode. […] Stock solutions (1 mg/mL zanamivir) were prepared in water. Standards (eight concentrations) were prepared in the appropriate matched matrix (HBSSg or Sprague-Dawley rat plasma containing sodium heparin) and diluted 50-fold with methanol. Experimental samples were treated identically.
Standards and samples were prepared in Sprague Dawley rat plasma containing sodium heparin as an anticoagulant. An eight-point calibration curve was prepared at concentrations of 1000, 750, 500, 250, 100, 50, 25, and 10 ng/mL by serial dilution. Standard samples were treated identically to the study samples.
Plasma samples were extracted by protein precipitation in methanol.
In this example, the bioavailability of Zanamivir was evaluated after intraduodenal doses in male Sprague-Dawley rats. The test compound was dosed at 1.5 mg/animal through intraduodenal routes from glycerol and PBS formulations. Plasma levels were determined by LC-MS/MS analysis. Pharmacokinetic parameters were estimated by a non-compartmental model using WinNonlin v5.2.1 software.

SMILES: CC(=O)NC1C(NC(=N)N)C=C(C(=O)O)OC1C(O)C(O)CO (centres unmarked) [Zanamivir, 5-acetamido-4-guanidino-6-(1,2,3-trihydroxypropyl)-5,6-dihydro-4H-pyran-2-carboxylic acid]
- Plasma concentration (ID 1.5 mg/animal, 50 µL PBS, 50 µL blank Capmul MCM L8 -2 hr, 0.25 hr, individual rats): 27.1 ng/mL and 28.1 ng/mL
- Plasma concentration (ID 1.5 mg/animal, 50 µL PBS, 50 µL blank Capmul MCM L8 -2 hr, 0.5 hr, individual rats): 34.5 ng/mL and 42.9 ng/mL
- Plasma concentration (ID 1.5 mg/animal, 50 µL PBS, 50 µL blank Capmul MCM L8 -2 hr, 0.83 hr, individual rats): 18.1 ng/mL and 8.00 ng/mL and 6.27 ng/mL
- Plasma concentration (ID 1.5 mg/animal, 50 µL PBS, 50 µL blank Capmul MCM L8 -2 hr, 1.0 hr, individual rats): 33.1 ng/mL and 32.1 ng/mL
- Plasma concentration (ID 1.5 mg/animal, 50 µL PBS, 50 µL blank Capmul MCM L8 -2 hr, 1.5 hr, individual rats): 61.5 ng/mL and 23.2 ng/mL and 31.4 ng/mL
- Plasma concentration (ID 1.5 mg/animal, 50 µL PBS, 50 µL blank Capmul MCM L8 -2 hr, 2.0 hr, individual rats): 68.3 ng/mL and 14.8 ng/mL and 18.2 ng/mL
- Tmax (ID 1.5 mg/animal, 50 µL PBS, 50 µL blank Capmul MCM L8 -2 hr, individual rats): 2.00 h
- Plasma concentration (ID 1.5 mg/animal, 50 µL PBS, 150 µL blank glycerol -2 hr, 0.25 hr, individual rats): 65.2 ng/mL and 28.9 ng/mL and 61.2 ng/mL
- Plasma concentration (ID 1.5 mg/animal, 50 µL PBS, 150 µL blank glycerol -2 hr, 0.5 hr, individual rats): 40.1 ng/mL and 72.3 ng/mL
- Plasma concentration (ID 1.5 mg/animal, 50 µL PBS, 150 µL blank glycerol -2 hr, 0.83 hr, individual rats): 22.7 ng/mL and 1.47 ng/mL and 48.9 ng/mL
- Plasma concentration (ID 1.5 mg/animal, 50 µL PBS, 150 µL blank glycerol -2 hr, 1.0 hr, individual rats): 39.8 ng/mL and 38.4 ng/mL
- Plasma concentration (ID 1.5 mg/animal, 50 µL PBS, 150 µL blank glycerol -2 hr, 1.5 hr, individual rats): 45.8 ng/mL and 34.5 ng/mL
- Plasma concentration (ID 1.5 mg/animal, 50 µL PBS, 150 µL blank glycerol -2 hr, 2.0 hr, individual rats, BLOQ = below 10 ng/mL): 54.8 ng/mL
- Tmax (ID 1.5 mg/animal, 50 µL PBS, 150 µL blank glycerol -2 hr, individual rats): 1.50 h
- Plasma concentration (ID 1.5 mg/animal, 100 µL Glycerol, 0.25 hr, individual rats): 76.4 ng/mL and 40.7 ng/mL
- Plasma concentration (ID 1.5 mg/animal, 100 µL Glycerol, 0.5 hr, individual rats): 59.2 ng/mL and 35.6 ng/mL
- Plasma concentration (ID 1.5 mg/animal, 100 µL Glycerol, 0.83 hr, individual rats): 55.4 ng/mL and 78.4 ng/mL and 37.5 ng/mL
- Plasma concentration (ID 1.5 mg/animal, 100 µL Glycerol, 1.0 hr, individual rats): 55.3 ng/mL and 39.4 ng/mL
- Plasma concentration (ID 1.5 mg/animal, 100 µL Glycerol, 1.5 hr, individual rats): 29.6 ng/mL and 47.6 ng/mL and 63.5 ng/mL
- Plasma concentration (ID 1.5 mg/animal, 100 µL Glycerol, 2.0 hr, individual rats): 30.8 ng/mL and 37.4 ng/mL and 94.5 ng/mL
- Tmax (ID 1.5 mg/animal, 100 µL Glycerol, individual rats): 2.00 h
- t1/2 (ID 1.5 mg/animal, 100 µL Glycerol, mean (n = 1)): 1.77 h
- Plasma concentration (ID 1.5 mg/animal, 150 µL Glycerol, 0.25 hr, individual rats): 57.9 ng/mL and 96.3 ng/mL
- Plasma concentration (ID 1.5 mg/animal, 150 µL Glycerol, 0.5 hr, individual rats): 919 ng/mL and 57.8 ng/mL and 55.9 ng/mL
- Plasma concentration (ID 1.5 mg/animal, 150 µL Glycerol, 0.83 hr, individual rats): 72.7 ng/mL and 108 ng/mL
- Plasma concentration (ID 1.5 mg/animal, 150 µL Glycerol, 1.0 hr, individual rats): 60.6 ng/mL and 36.6 ng/mL
- Plasma concentration (ID 1.5 mg/animal, 150 µL Glycerol, 1.5 hr, individual rats): 46.8 ng/mL and 46.9 ng/mL and 16.0 ng/mL
- Plasma concentration (ID 1.5 mg/animal, 150 µL Glycerol, 2.0 hr, individual rats): 37.7 ng/mL and 33.4 ng/mL and 16.7 ng/mL
- tmax (second line so headed, Table 10) (ID 1.5 mg/animal, 150 µL Glycerol, individual rats): 1.16 h
- half-life (male, Sprague-Dawley, rat, in vivo, 1.5 mg, 50 µL PBS, 50 µL blank Capmul MCM L8 -2 hr, individual rats): 0.86 h
- half-life (male, Sprague-Dawley, rat, in vivo, 1.5 mg, 50 µL PBS, 50 µL blank Capmul MCM L8 -2 hr, mean (n = 1)): 0.86 h
- half-life (male, Sprague-Dawley, rat, in vivo, 1.5 mg, 100 µL Glycerol, individual rats): 1.77 h
- half-life (male, Sprague-Dawley, rat, in vivo, 1.5 mg, 100 µL Glycerol, mean (n = 1)): 1.77 h
- half-life (male, Sprague-Dawley, rat, in vivo, 1.5 mg, 150 µL Glycerol, mean (n = 2)): 1.63 h
- Tmax (male, Sprague-Dawley, rat, in vivo, 1.5 mg, tmax (second line so headed, Table 10), ID 1.5 mg/animal, 150 µL Glycerol, individual rats): 2.09 h
- Tmax (male, Sprague-Dawley, rat, in vivo, 1.5 mg, tmax (second line so headed, Table 10), ID 1.5 mg/animal, 150 µL Glycerol, mean): 1.63 h
- Tmax (male, Sprague-Dawley, rat, in vivo, 1.5 mg, tmax, ID 1.5 mg/animal, 50 µL PBS, 50 µL blank Capmul MCM L8 -2 hr, mean): 1 h
- Tmax (male, Sprague-Dawley, rat, in vivo, 1.5 mg, tmax, ID 1.5 mg/animal, 50 µL PBS, 150 µL blank glycerol -2 hr, mean): 0.75 h
